# Test results as given in US20190216761A1, “COMPOSITIONS COMPRISING 15-HEPE AND METHODS OF USING THE SAME” (Afimmune Limited, priority 2015, published 2019).
# Key:
# rPPARδ Reporter Cells = experiment: Live cell multiplex assay; format: cell-based
# Description: (§1) This study utilized proprietary reporter cells expressing a hybrid receptor comprising the N-terminal Gal4 DNA binding domain fused to the ligand binding domain of the specific human nuclear receptor (hPPARα, hPPARδ, and hPPARγ) and rat nuclear receptor (rPPARα, rPPARδ, and rPPARγ). The reporter vectors used in this Example comprise the firefly luciferase gene functionally linked to the Gal4 upstream activation sequence.
# (§2) Nuclear Receptor assay was performed by suspending Reporter Cells in CRM containing 10% charcoal stripped FBS. 2×-EC80 concentrations of the appropriate reference agonist were then added to the Reporter Cell suspension, and 100 μL of the mixture dispensed into wells of a white 96-well plate. Test compounds were diluted using compound screening medium (CSM) containing 10% charcoal stripped FBS to generate “2×-concentration” treatment media. Immediately after this dilution step, 100 μL of each diluted 2×-concentration treatment medium was dispensed (in triplicate) into the Reporter Cell-containing assay wells.
# (§3) After incubation at 37° C. for 24 hours, the treatment media was discarded. Each well was rinsed once with LCM Buffer; LCM substrate was then added. After incubation for 30 minutes at 37° C., fluorescence was measured to determine the relative number of live cells per assay well. LCM substrate was then discarded and 100 μL of Luciferase Detection Reagent substrate was added to each well. RLUs were quantified from each well to determine nuclear receptor activities.
# hPPARγ Reporter Cells = experiment: Live cell multiplex assay; format: cell-based
# Description: as §1, §2, §3
# rPPARα Reporter Cells = experiment: Live cell multiplex assay; format: cell-based
# Description: as §1, §2, §3
# rPPARγ Reporter Cells = experiment: Live cell multiplex assay; format: cell-based
# Description: as §1, §2, §3
# rPPARδ = experiment: PPAR antagonist reporter assay (reference agonist at EC80); format: cell-based, rat
# Description: as §1, §2, §3
smiles,measurement,setting,value
"CC/C=C\C[C@H](O)/C=C/C=C\C/C=C\C/C=C\CCCC(=O)OCC [15-HEPE-EE, 15-HEPE ethyl ester]","% Live cells vs. 0.10% DMSO, rPPAR-δ","rPPARδ Reporter Cells; 3,704 nM",99%
same,"% Live cells vs. 0.10% DMSO, rPPAR-δ","rPPARδ Reporter Cells; 11,111 nM",100%
same,"% Live cells vs. 0.10% DMSO, rPPAR-δ","rPPARδ Reporter Cells; 33,333 nM",100%
same,"% Live cells vs. 0.10% DMSO, rPPAR-δ","rPPARδ Reporter Cells; 100,000 nM",99%
same,"% Live cells vs. 0.10% DMSO, rPPAR-δ","rPPARδ Reporter Cells; 300,000 nM",5.0%
same,"% Live cells vs. 0.10% DMSO, hPPAR-γ",hPPARγ Reporter Cells; 137 nM,86%
same,"% Live cells vs. 0.10% DMSO, hPPAR-γ",hPPARγ Reporter Cells; 412 nM,99%
same,"% Live cells vs. 0.10% DMSO, hPPAR-γ","hPPARγ Reporter Cells; 1,235 nM",101%
same,"% Live cells vs. 0.10% DMSO, hPPAR-γ","hPPARγ Reporter Cells; 3,704 nM",101%
same,"% Live cells vs. 0.10% DMSO, hPPAR-γ","hPPARγ Reporter Cells; 11,111 nM",100%
same,"% Live cells vs. 0.10% DMSO, hPPAR-γ","hPPARγ Reporter Cells; 33,333 nM",99%
same,"% Live cells vs. 0.10% DMSO, hPPAR-γ","hPPARγ Reporter Cells; 100,000 nM",91%
same,"% Live cells vs. 0.10% DMSO, hPPAR-γ","hPPARγ Reporter Cells; 300,000 nM",4.9%
same,"% Live cells vs. 0.10% DMSO, rPPAR-α",rPPARα Reporter Cells; 137 nM,89%
same,"% Live cells vs. 0.10% DMSO, rPPAR-α",rPPARα Reporter Cells; 412 nM,98%
same,"% Live cells vs. 0.10% DMSO, rPPAR-α","rPPARα Reporter Cells; 1,235 nM",97%
same,"% Live cells vs. 0.10% DMSO, rPPAR-α","rPPARα Reporter Cells; 3,704 nM",99%
same,"% Live cells vs. 0.10% DMSO, rPPAR-α","rPPARα Reporter Cells; 11,111 nM",99%
same,"% Live cells vs. 0.10% DMSO, rPPAR-α","rPPARα Reporter Cells; 33,333 nM",98%
same,"% Live cells vs. 0.10% DMSO, rPPAR-α","rPPARα Reporter Cells; 100,000 nM",76%
same,"% Live cells vs. 0.10% DMSO, rPPAR-α","rPPARα Reporter Cells; 300,000 nM",3.1%
same,"% Live cells vs. 0.10% DMSO, rPPAR-γ",rPPARγ Reporter Cells; 137 nM,98%
same,"% Live cells vs. 0.10% DMSO, rPPAR-γ",rPPARγ Reporter Cells; 412 nM,101%
same,"% Live cells vs. 0.10% DMSO, rPPAR-γ","rPPARγ Reporter Cells; 1,235 nM",101%
same,"% Live cells vs. 0.10% DMSO, rPPAR-γ","rPPARγ Reporter Cells; 3,704 nM",100%
same,"% Live cells vs. 0.10% DMSO, rPPAR-γ","rPPARγ Reporter Cells; 11,111 nM",101%
same,"% Live cells vs. 0.10% DMSO, rPPAR-γ","rPPARγ Reporter Cells; 33,333 nM",101%
same,"% Live cells vs. 0.10% DMSO, rPPAR-γ","rPPARγ Reporter Cells; 100,000 nM",99%
same,"% Live cells vs. 0.10% DMSO, rPPAR-γ","rPPARγ Reporter Cells; 300,000 nM",91%
same,"% Inhibition of agonist-stimulated receptor activity vs. 0.10% DMSO, rPPAR-δ",rPPARδ; 137 nM,25%
same,"% Inhibition of agonist-stimulated receptor activity vs. 0.10% DMSO, rPPAR-δ",rPPARδ; 412 nM,1.5%
same,"% Inhibition of agonist-stimulated receptor activity vs. 0.10% DMSO, rPPAR-δ","rPPARδ; 1,235 nM",−1.8%
same,"% Inhibition of agonist-stimulated receptor activity vs. 0.10% DMSO, rPPAR-δ","rPPARδ; 3,704 nM",6.8%
same,"% Inhibition of agonist-stimulated receptor activity vs. 0.10% DMSO, rPPAR-δ","rPPARδ; 11,111 nM",1.2%
same,"% Inhibition of agonist-stimulated receptor activity vs. 0.10% DMSO, rPPAR-δ","rPPARδ; 33,333 nM",26%
same,"% Inhibition of agonist-stimulated receptor activity vs. 0.10% DMSO, rPPAR-δ","rPPARδ; 100,000 nM",58%
same,"% Inhibition of agonist-stimulated receptor activity vs. 0.10% DMSO, rPPAR-δ","rPPARδ; 300,000 nM",100%
same,"inhibition of rat PPARs (in words), rPPARδ",rPPARδ; at higher test concentrations,apparent inhibition
